The test system of assay [1] is human lung cancer NCI-H2228 cells subcutaneous xenograft tumor. The assay can be described thus: In vivo pharmacodynamic study in subcutaneous xenograft tumor NOD SCID mouse model of human lung cancer NCI-H2228 cells. The following applies: 50 mg/kg subcutaneous injection once a day. Details: species or system NOD SCID mice. The method, then:
Human lung cancer cell NCI-H2228 (ATCC® CRL-5935™) was cultured in vitro in an adherent monolayer in RPMI 1640 medium supplemented with 10% fetal bovine serum, 100 U/mL penicillin and 100 μg/mL streptomycin in an incubator at 37° C. and 5% CO2. Cells were passaged by routine digestion with trypsin-EDTA twice a week. When the cell saturation was 80%-90% and the number met the requirement, the cells are collected, counted, and inoculated.
NOD SCID mice, female, 6-8 weeks old, weighing 18-22 grams.
0.2 mL (10×10^6 cells) of NCI-H2228 cells (with matrigel, v/v 1:1) were subcutaneously inoculated into the right back of each mouse. The administration by group was started when the average tumor volume reached 171 mm^3. One administration cycle comprised seven days, with administration once a day. The assay compounds were administered by subcutaneous injection for a total of four cycles. The subcutaneous injection doses of the assay compounds WX001 and WX002 were both 50 mg/kg. Tumor diameter was measured twice a week with a vernier caliper, and tumor volume was measured in cubic millimeters and calculated by the following formula: V=0.5a×b^2, where a and b are the long and short diameters of the tumor, respectively. The tumor-inhibitory efficacy of the assay compounds was evaluated by using TGI (%). TGI (%) reflects a tumor growth inhibition rate. TGI (%)=[1−(Average tumor volume at the end of administration of a treatment group−Average tumor volume at the beginning of administration of the treatment group)/(Average tumor volume at the end of treatment of a vehicle control group−Average tumor volume at the beginning of treatment of the vehicle control group)]×100%.
On the technique in general: In xenograft studies the graft and the host belong to different species.

The target in assay [2] is T1, Recombinant human-derived ALK (Homo sapiens, UniProt Q9UM73).
T1 construct: BAG10812.1; 1058-1620 (terminal) amino acids; GST (N); made in house
Description: Inhibitory activity of compounds against ALK kinase (time-resolved fluorescence resonance energy transfer). The class given is biochemical. The following applies: 30 μM ATP, 50 nM ULight-poly GT peptide. On the procedure: The inhibitory activity of the compounds on ALK kinase was detected by time-resolved fluorescence resonance energy transfer method, that is, the ratio of fluorescence signals at 665 nm/615 nm was used to represent the activity of the enzyme.
Assay buffer solution: 50 mM 2-[4-(2-hydroxyethyl)-1-piperazinyl]ethanesulfonic acid buffer solution (HEPES) (pH 7.5), 10 mM MgCl2, 1 mM EDTA 0.01%, polyoxyethylene lauryl ether (Brij 35), 2 mM dithiothreitol (DTT).
Enzyme: Recombinant human-derived ALK (gene accession number: BAG10812.1; 1058-1620 (terminal) amino acids) was expressed with a N-terminal GST fusion protein (90 kDa) using a baculovirus expression system.
Enzyme substrate: 50 nM ULight-poly GT polypeptide.
Detection: europium-labeled anti-phosphotyrosine (PT66) antibody.
1. Compounds dissolved in 100% DMSO were added to 384-well plates by acoustic technique; 2. Recombinant human-derived ALK enzyme and enzyme substrate (50 nM ULight-poly GT peptide) or zymolyte (30 μM ATP) were dissolved in freshly prepared assay buffer; 3. The above ALK enzyme and enzyme substrate in the buffer solution were transferred to reaction wells; 4. Then, the zymolyte in the buffer solution was added to the above reaction wells to initiate the reaction; 5. The plate was incubated at room temperature for 1 hour; 6. The detection mixture (PT66 antibody and EDTA) was added to terminate the reaction, and the mixture was incubated at room temperature for 60 minutes; 7. Then, the plate was read using a microplate reader to obtain the ratio of fluorescence signals at 665 nm/615 nm.
Data analysis: Emission ratio (665 nm/615 nm) in the original data was involved in the calculation of the inhibition rate. The concentration and inhibition rate were analyzed using XLfit software 205 mode (4 Parameters Logistic Model) to obtain IC50 value and curve.

Assay [3] relates to human lung cancer cell NCI-H2228. The assay can be described thus: Anti-proliferative effect in human lung cancer cell NCI-H2228 (CellTiter-Glo). The class given is cell-based. The following applies: NCI-H2228, 72 h, cell proliferation, cultured for 3 days. On the procedure: In this assay, the inhibitory effect of assay compounds on cell proliferation was assayed in human lung cancer cell NCI-H2228.
(§1) (1) Promega CellTiter-Glo luminescent cell viability assay kit (Promega-G7573). (2) 2104 EnVision® plate reader, PerkinElmer.
(§2) The tumor cell line was cultured in a 37° C., 5% CO2 incubator according to the above-mentioned culture conditions. Cells were passaged periodically, and cells in logarithmic growth phase were used for plating.
(1). Cells were stained with trypan blue and viable cells were counted; (2). The cell concentration was adjusted to an appropriate concentration;
(3). 90 μL of cell suspension was added to each well of the culture plate as shown in the table above, and cell-free culture medium was added to the blank control well; (4). The plate was incubated in an incubator at 37° C., 5% CO2, and 100% relative humidity overnight.
Preparation of a mother solution storage plate with 400 times the starting compound concentration: the compounds were diluted serially with DMSO from the highest concentration to the lowest concentration. The plate was prepared freshly every time it was used.
(1). 78 μL of cell culture medium was added to a 96-well plate with a V-shaped bottom. […]
(1). […] The culture plate was left at room temperature for 10 minutes to stabilize the luminescence signal; (9). The luminescent signal was detected on a 2104 EnVision plate reader. […]
In general terms: In ATP-based viability assays light output follows the ATP content of the culture.

Assay [4] relates to human acute myeloid leukemia cell MV4-11. Description: Anti-proliferative effect in human acute myeloid leukemia cell MV4-11 (CellTiter-Glo). It counts as cell-based. The following applies: MV4-11, 96 h, cell proliferation, incubated for 4 days. On the procedure:
In this assay, the inhibitory effect of assay compounds on cell proliferation in human acute myeloid leukemia cell MV4-11 was detected by ATP fluorescence activity detection (CellTiter-Glo).
as §1, §2
(1). Cells were stained with trypan blue and viable cells were counted; (2). The cell concentration was adjusted to an appropriate concentration; (3). 90 μL of cell suspension was added to each well of the culture plate, and each well contained 6000 cells. In the blank group and other wells, no cells were inoculated, and only 90 μL of culture medium was added; (4). The plate was incubated in an incubator at 37° C., 5% CO2, and 100% relative humidity overnight.
(1) Formulation of 10× drug solution: A sterile round bottom 96-well plate was used, and the concentration of mother solutions of WX007, WX008, WX009, WX010, WX011 and WX012 was 10 mM. 5 μL of compound was added to the first well with 5 μL of 1640 medium, and mixed well to obtain a concentration of 5 mM. 5 μL of compound from the first well was added to the third well containing 45 μL of 1640 medium and mixed well to obtain a concentration of 500 μM. 5 μL of compound from the third well was added to the fourth well containing 45 μL of 1640 medium and mixed well to obtain a concentration of 50 μM. 20 μL of compound from the fourth well was added to the fifth well containing 180 μL of 1640 medium and mixed well to obtain 5 μM mother solution. Another sterile round bottom 96-well plate was used, and 60 μL of 5 μM compound was added to the first well. 30 μL of 5 μM compound was added to the second well with 60 μL of 1640 medium, and so forth. Compounds were serially diluted 3-fold to obtain a total of 9 concentrations. To the blank control was added an equal volume of DMSO in the same dilution way.
(2) Formulation of drug solution with the final concentration: 10 μL of the 10× drug solution as prepared above was added to 90 μL of culture medium in triplicate. To the control group was added an equal volume of DMSO solution, and the cell plate was flicked, so that the solution was mixed well. To the blank group was added 10 μL of 1640 medium. The plate was gently taped, so that the solution was mixed well. The plate was placed back in 37° C., 5% CO2 incubator and incubated for 4 days.
(1) Formulation of the drug solution: A sterile round-bottom 96-well plate was used, and the stock concentration of each compound was 10 mM. 2 μL of compound in 18 μL of DMSO was added to the first well and the mixture was mixed well to obtain a concentration of 1 mM; 10 μL of compound from the first well was added to the third well containing 90 μL of 1640 medium and the mixture was mixed well to obtain a concentration of 100 μM;
(2) For WX058, WX059, WX060 and WX042, 12 μL of solution from the third well obtained above was added to the fourth well containing 108 μL of 1640 medium and the mixture was mixed well to obtain a drug with 10 μM maximum concentration.
(3) Another new sterile round bottom 96-well plate was used, and 60 μL of each drug with the maximum concentration in step (2) was placed in the first well. 60 μL of solution from the first well was added to the second well with 60 μL 1640 medium, and so forth. Compounds were serially diluted 2-fold to obtain a total of 9 concentrations.
(4) For the blank control group, an equal volume of DMSO was added in the same dilution way.
(5) 10 μL of the solution with gradient drug concentrations prepared as above was added to 90 μL of culture medium in triplicate. For the control group, an equal volume of DMSO solution was added. The cell plate was gently tapped, so that the solution was mixed well. […]

Where a name gives a salt, the structure may show the parent alone.

T1 sequence (Q9UM73 1058-1620): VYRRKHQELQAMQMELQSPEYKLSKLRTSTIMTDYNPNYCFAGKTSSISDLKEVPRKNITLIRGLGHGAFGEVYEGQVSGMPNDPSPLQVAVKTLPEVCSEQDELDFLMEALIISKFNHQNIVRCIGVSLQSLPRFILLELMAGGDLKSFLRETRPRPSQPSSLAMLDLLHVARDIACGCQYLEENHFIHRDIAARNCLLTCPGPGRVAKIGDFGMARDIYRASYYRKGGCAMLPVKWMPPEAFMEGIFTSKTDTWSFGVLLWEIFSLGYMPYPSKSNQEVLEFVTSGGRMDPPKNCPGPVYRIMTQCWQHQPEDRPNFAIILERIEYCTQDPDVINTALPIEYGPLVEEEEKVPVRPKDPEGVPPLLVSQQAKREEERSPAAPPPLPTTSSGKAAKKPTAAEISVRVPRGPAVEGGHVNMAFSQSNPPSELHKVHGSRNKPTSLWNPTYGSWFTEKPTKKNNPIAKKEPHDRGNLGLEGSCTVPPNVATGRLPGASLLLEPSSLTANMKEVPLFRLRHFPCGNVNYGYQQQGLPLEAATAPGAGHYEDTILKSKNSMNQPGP

For the compound `Cc1cc(Nc2ncc(Cl)c(Nc3ccccc3S(=O)(=O)C(C)C)n2)c(OC(C)C)cc1C1CCN(CC(=O)NCc2ccc3c(ccc4occ(C5CCC(=O)NC5=O)c43)c2)CC1` (centres unmarked) [WX002 hydrochloride], in assay [1] (Day 1), the “Tumor volume (Day 1)” value was 172 ± 11 mm^3. Moreover, the “TGI (Day 28)” value in assay [1] (Day 28) was found to be 100.38%. Besides, the “Tumor volume (Day 28)” value in assay [1] (Day 28) is reported as 169 ± 30 mm^3. Further, the IC50 came to 15.6 nM in assay [2] and 160 nM in assay [3].
As to `Cc1cc(Nc2ncc(Cl)c(Nc3ccccc3S(=O)(=O)C(C)C)n2)c(OC(C)C)cc1C1CCN(C(=O)COc2ccc3occ(C4CCC(=O)NC4=O)c3c2)CC1` (centres unmarked) [WX003], in assay [2], the IC50 was 33.8 nM.
The same measure, in the same setting: the result for `Cc1cc(Nc2ncc(Cl)c(Nc3ccccc3S(=O)(=O)C(C)C)n2)c(OC(C)C)cc1C1CCN(CCOc2ccc3occ(C4CCC(=O)NC4=O)c3c2)CC1` (centres unmarked) [WX006] reads 12.2 nM.
As to `Cc1sc2c(c1C)C(c1ccc(Cl)cc1)=N[C@@H](CC(=O)NCCOc1ccc3c(ccc4occ(C5CCC(=O)NC5=O)c43)c1)c1nnc(C)n1-2` (some centres unmarked) [WX007], the IC50 in assay [4] was determined as 202 nM.
With `Cc1sc2c(c1C)C(c1ccc(Cl)cc1)=N[C@@H](CC(=O)NCCOCCOCCOc1ccc3c(ccc4occ(C5CCC(=O)NC5=O)c43)c1)c1nnc(C)n1-2` (some centres unmarked) [WX008], the half-inhibitory concentration (IC50) in assay [4] stood at 22.5 nM.
On to `Cc1sc2c(c1C)C(c1ccc(Cl)cc1)=N[C@@H](CC(=O)NCCCCCCNc1ccc3c(ccc4occ(C5CCC(=O)NC5=O)c43)c1)c1nnc(C)n1-2` (some centres unmarked) [WX009], for which, in assay [4], the IC50 turned out to be 51.7 nM.
For the compound `Cc1sc2c(c1C)C(c1ccc(Cl)cc1)=N[C@@H](CC(=O)NCCNc1ccc3c(ccc4occ(C5CCC(=O)NC5=O)c43)c1)c1nnc(C)n1-2` (some centres unmarked) [WX010], the midpoint of inhibition in assay [4], the IC50, lay at 61.3 nM.
`Cc1sc2c(c1C)C(c1ccc(Cl)cc1)=N[C@@H](CC(=O)NCCOCCOc1ccc3c(ccc4occ(C5CCC(=O)NC5=O)c43)c1)c1nnc(C)n1-2` (some centres unmarked) [WX011]: the IC50 in assay [4] turned out to be 73.8 nM.
Turning to `Cc1sc2c(c1C)C(c1ccc(Cl)cc1)=N[C@@H](CC(=O)NCCCCCCOc1ccc3c(ccc4occ(C5CCC(=O)NC5=O)c43)c1)c1nnc(C)n1-2` (some centres unmarked) [WX012], the IC50 in assay [4] worked out at 70.6 nM.
As to `Cc1sc2c(c1C)C(c1ccc(Cl)cc1)=N[C@@H](CC(=O)NCCCNC(=O)COc1ccc3occ(C4CCC(=O)NC4=O)c3c1)c1nnc(C)n1-2` (some centres unmarked) [WX042], the IC50 in assay [4] came out at 35.4 nM.
On the same count and under the same terms, the figure for `Cc1sc2c(c1C)C(c1ccc(Cl)cc1)=N[C@@H](CC(=O)NCCCOc1ccc3occ(C4CCC(=O)NC4=O)c3c1)c1nnc(C)n1-2` (some centres unmarked) [WX058] is 11.3 nM.
As to `Cc1sc2c(c1C)C(c1ccc(Cl)cc1)=N[C@@H](CC(=O)NCCOc1ccc3occ(C4CCC(=O)NC4=O)c3c1)c1nnc(C)n1-2` (some centres unmarked) [WX059], the IC50 in assay [4] is 16.6 nM.
On to `Cc1sc2c(c1C)C(c1ccc(Cl)cc1)=N[C@@H](CC(=O)NCCCCOc1ccc3occ(C4CCC(=O)NC4=O)c3c1)c1nnc(C)n1-2` (some centres unmarked) [WX060], for which the IC50 in assay [4] stood at 17 nM.

As usually defined, the IC50 is the concentration that gives 50% inhibition.

The values are drawn from patent US20230158152A1, “PROTEOLYSIS REGULATOR AND METHOD FOR USING SAME” (MEDSHINE DISCOVERY INC., priority 2020, published 2023).
